Reference: publication PMC10376326, “Novel Acylselenourea Derivatives: Dual Molecules with Anticancer and Radical Scavenging Activity” (Antioxidants, 2023)

tested on: DU-145 (prostate) cancer cell line; assay: MTT cell viability assay, DU-145; type: cell-based, human; conditions: DU-145, 10 µM, 48 h, MTT
Protocol: (§1) Cell lines were purchased from the American Type Culture Collection (ATCC). Cell lines MDA-MB-231, HTB-54, DU-145, and BEAS-2B were cultured in RPMI 1640 medium (Gibco, Thermo Fisher Scientific, Gaithersburg, MD, USA) supplemented with 10% fetal bovine serum (FBS; Gibco), 100 units/mL penicillin, and […] streptomycin (Gibco). HT-29 cell line was grown in McCoy’s 5A (Gibco), 10% FBS, 100 units/mL penicillin, and 100 μg/mL streptomycin. Cells were maintained at 37 °C and 5% CO2. The culture medium was changed every three days.
(§2) The cell viability of each compound was measured by MTT colorimetric assay. Each compound was dissolved in DMSO at a concentration of 0.01 M. Each compound was tested at two different concentrations (10 and 50 µM) in MDA-MB-231 (breast), HTB-54 (lung), DU-145 (prostate), and HT-29 (colon) human cancer cell lines. Serial dilutions were prepared with supplemented culture medium. […] IC50 and selectivity indexes (SI) were determined.
(§3) Briefly, 1 × 10^4 tumor cells per well were grown in 96-well plates for 24 h. Then, these cells were incubated for 48 h with either DMSO (control) or a different concentration of each of the tested compounds. The cell viability was determined by adding 20 μL of MTT two hours and a half before the termination point. After this time, the culture medium was removed. The resulting formazan crystals were dissolved in 50 μL of DMSO, and the absorbance was measured at 570 nm. Results are expressed as % cell growth. The data were obtained from at least three independent experiments performed in quadruplicate.

Q: Which cell growth % does the source give for `C=CCNC(=[Se])NC(=O)/C=C/c1ccccc1` [Compound 6.II, N-(allylcarbamoselenoyl)cinnamamide] here?
A: 57.30%

same assay, conditions: Homo sapiens, DU-145, 48 h, read-out: Cell growth %, DU-145, 10 µM, 48 h, MTT

Q: For `C=CCNC(=[Se])NC(=O)/C=C/c1ccccc1` [Compound 6.II, N-(allylcarbamoselenoyl)cinnamamide], which activity at 10 µM is on record?
A: 57.3 ± 3.6%

same assay, conditions: Homo sapiens, DU-145, 48 h, read-out: Cell growth %, DU-145, 50 µM, 48 h, MTT

Q: For `C=CCNC(=[Se])NC(=O)/C=C/c1ccccc1` [Compound 6.II, N-(allylcarbamoselenoyl)cinnamamide], which activity at 50 µM is on record?
A: 14.6 ± 4.5%

tested on: MDA-MB-231 (breast) cancer cell line; assay: MTT cell viability assay, MDA-MB-231; type: cell-based, human; conditions: Homo sapiens, MDA-MB-231, 48 h, read-out: Cell growth %, MDA-MB-231, 10 µM, 48 h, MTT
Protocol: as §1, §2, §3

Q: For `C=CCNC(=[Se])NC(=O)/C=C/c1ccccc1` [Compound 6.II, N-(allylcarbamoselenoyl)cinnamamide], which activity at 10 µM is on record?
A: 51.8 ± 6.8%

same assay, conditions: Homo sapiens, MDA-MB-231, 48 h, read-out: Cell growth %, MDA-MB-231, 50 µM, 48 h, MTT

Q: With `C=CCNC(=[Se])NC(=O)/C=C/c1ccccc1` [Compound 6.II, N-(allylcarbamoselenoyl)cinnamamide] as the compound, how does the activity at 50 µM read?
A: 30.5 ± 7.1%

tested on: HT-29 (colon) cancer cell line; assay: MTT cell viability assay, HT-29; type: cell-based; conditions: Homo sapiens, HT-29, 48 h, HT-29, 10 µM, read-out: Cell growth %
Protocol: as §1, §2, §3

Q: For `C=CCNC(=[Se])NC(=O)/C=C/c1ccccc1` [Compound 6.II, N-(allylcarbamoselenoyl)cinnamamide], which activity at 10 µM is on record?
A: 94.7 ± 5.3%

same assay, conditions: Homo sapiens, HT-29, 48 h, HT-29, 50 µM, read-out: Cell growth %

Q: For `C=CCNC(=[Se])NC(=O)/C=C/c1ccccc1` [Compound 6.II, N-(allylcarbamoselenoyl)cinnamamide], which activity at 50 µM is on record?
A: 56.1 ± 11%

tested on: HTB-54 (lung) cancer cell line; assay: MTT cell viability assay, HTB-54; type: cell-based, human; conditions: Homo sapiens, HTB-54, 48 h, read-out: Cell growth %, HTB-54, 10 µM, 48 h, MTT
Protocol: as §1, §2, §3

Q: With `C=CCNC(=[Se])NC(=O)/C=C/c1ccccc1` [Compound 6.II, N-(allylcarbamoselenoyl)cinnamamide] as the compound, how does the activity at 10 µM read?
A: 68.7 ± 8.2%

same assay, conditions: Homo sapiens, HTB-54, 48 h, read-out: Cell growth %, HTB-54, 50 µM, 48 h, MTT

Q: Which activity at 50 µM does the source give for `C=CCNC(=[Se])NC(=O)/C=C/c1ccccc1` [Compound 6.II, N-(allylcarbamoselenoyl)cinnamamide] here?
A: 44.1 ± 10.6%

tested on: not listed separately; assay: DPPH radical scavenging assay; type: biochemical; conditions: 0.003 mg/mL, 0 min
Protocol: Different methods are available to quantify the antioxidant capacity of natural or novel molecules. Notable among these are the ABTS^•+ and DPPH^• methods, which measure the quenching efficiency in vitro for known concentrations of preformed radicals. In this work, the DPPH^• colorimetric assay was carried out. Measurements were recorded on a BioTeck PowerWave XS spectrophotometer (BioTeck Instruments, Winooski, VT, USA) and data were collected using KCJunior v.1.41. software (BioTeck Instruments, Winooski, VT, USA). Compounds with potent activity were selected to further determine their protective effect against ROS-induced cell death caused by H2O2.
DPPH colorimetric assay was performed to determine the in vitro radical scavenging activity of the acylselenourea derivatives. DPPH assay was performed as described by Svinyarov. For each acylselenourea, a stock solution of 1 mg/mL in dimethyl sulfoxide (DMSO) was made, and these solutions were used to prepare the different concentrations employed in the assay. The compounds were tested at two different concentrations (0.003 and 0.03 mg/mL). Intermediate solutions were prepared in methanol and a volume of 100 µL of each was added to each well of the plate. Then, 100 µL of DPPH^• (previously prepared at a concentration of 0.04 mg/mL in methanol and preserved in the dark) was added to the previous methanolic acylselenourea solutions. The discoloration of the purple radical to the yellow reduced form was followed at 517 nm at different time points (0, 5, 15, 30, 60, 90, and 120 min). Ascorbic acid and trolox were used as positive controls. All measurements were carried out in triplicate. Results are expressed as the percentage of the radicals scavenged, calculated using the following formula: (1) % DPPH radical scavenging=Acontrol - Asample/Acontrol × 100 where Acontrol refers to the absorbance of the negative control and Asample refers to the absorbance of the tested compounds. Results are expressed as percentage of DPPH radical scavenging ± SD.

Q: Which inhibition does the source give for `C=CCNC(=[Se])NC(=O)/C=C/c1ccccc1` [Compound 6.II, N-(allylcarbamoselenoyl)cinnamamide] here?
A: 0%

same assay, conditions: 0.003 mg/mL, 5 min

Q: With `C=CCNC(=[Se])NC(=O)/C=C/c1ccccc1` [Compound 6.II, N-(allylcarbamoselenoyl)cinnamamide] as the compound, how does the inhibition read?
A: 0%

same assay, conditions: 0.003 mg/mL, 15 min

Q: For `C=CCNC(=[Se])NC(=O)/C=C/c1ccccc1` [Compound 6.II, N-(allylcarbamoselenoyl)cinnamamide], which inhibition is on record?
A: 0%

same assay, conditions: 0.003 mg/mL, 30 min

Q: For `C=CCNC(=[Se])NC(=O)/C=C/c1ccccc1` [Compound 6.II, N-(allylcarbamoselenoyl)cinnamamide], which inhibition is on record?
A: 0%

same assay, conditions: 0.003 mg/mL, 60 min

Q: With `C=CCNC(=[Se])NC(=O)/C=C/c1ccccc1` [Compound 6.II, N-(allylcarbamoselenoyl)cinnamamide] as the compound, how does the inhibition read?
A: 0%

same assay, conditions: 0.003 mg/mL, 90 min

Q: With `C=CCNC(=[Se])NC(=O)/C=C/c1ccccc1` [Compound 6.II, N-(allylcarbamoselenoyl)cinnamamide] as the compound, how does the inhibition read?
A: 0.5 ± 2.3%

same assay, conditions: 0.003 mg/mL, 120 min

Q: With `C=CCNC(=[Se])NC(=O)/C=C/c1ccccc1` [Compound 6.II, N-(allylcarbamoselenoyl)cinnamamide] as the compound, how does the inhibition read?
A: 1.1 ± 2.3%

same assay, conditions: 0.03 mg/mL, 0 min

Q: With `C=CCNC(=[Se])NC(=O)/C=C/c1ccccc1` [Compound 6.II, N-(allylcarbamoselenoyl)cinnamamide] as the compound, how does the inhibition read?
A: 0%

same assay, conditions: 0.03 mg/mL, 5 min

Q: Which inhibition does the source give for `C=CCNC(=[Se])NC(=O)/C=C/c1ccccc1` [Compound 6.II, N-(allylcarbamoselenoyl)cinnamamide] here?
A: 1 ± 1.7%

same assay, conditions: 0.03 mg/mL, 15 min

Q: Which inhibition does the source give for `C=CCNC(=[Se])NC(=O)/C=C/c1ccccc1` [Compound 6.II, N-(allylcarbamoselenoyl)cinnamamide] here?
A: 4.6 ± 1.3%

same assay, conditions: 0.03 mg/mL, 30 min

Q: For `C=CCNC(=[Se])NC(=O)/C=C/c1ccccc1` [Compound 6.II, N-(allylcarbamoselenoyl)cinnamamide], which inhibition is on record?
A: 9.8 ± 1.1%

same assay, conditions: 0.03 mg/mL, 60 min

Q: For `C=CCNC(=[Se])NC(=O)/C=C/c1ccccc1` [Compound 6.II, N-(allylcarbamoselenoyl)cinnamamide], which inhibition is on record?
A: 18.8 ± 0.9%

same assay, conditions: 0.03 mg/mL, 120 min

Q: For `C=CCNC(=[Se])NC(=O)/C=C/c1ccccc1` [Compound 6.II, N-(allylcarbamoselenoyl)cinnamamide], which inhibition is on record?
A: 34.2 ± 0.7%

same assay, conditions: acylselenourea analogs, 0.03 mg/mL, 90 min

Q: With `C=CCNC(=[Se])NC(=O)/C=C/c1ccccc1` [Compound 6.II, N-(allylcarbamoselenoyl)cinnamamide] as the compound, how does the “DPPH Inhibitory%” value read?
A: 26.7 ± 0.6%
